Reference: US20210254272A1, “TEXTILES HAVING ANTIMICROBIAL PROPERTIES” (Livinguard AG, priority 2015, published 2021)

Legend:
[1] = Leaching test: 100 g fabric soaked in 10 liters stagnant distilled water, 3 days (72 hours); format: physicochemical; conditions: for Leaching of active ingredients / Leaching Test-Leaching of active ingredients: pad process; for Leaching of active ingredients: cured 180° C. 2 min; for Leaching Test-Leaching of active ingredients: 2 min
Method in brief: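 Test and control fabrics were soaked together in a closed jar. Leached substances in the water were then determined by standard analytical methods.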

[2] = Leaching: 10 grams fabric in 100 milliliters distilled water, 7 days, GC-MS; format: physicochemical
Description: To test for a potential leaching of the antimicrobial agents fixed to the textile material, the following test was performed. A test fabric of polyester 65%/cotton 35% with 210 g/m2 was treated with polyhexamethylenebiguanide (PHMB) 0.5%, silver chloride 0.075%, octadecylaminomethyl trihydroxysilylpropyl ammonium chloride (organosilane) 0.4%, and propiconazole 0.5%
The treated textile material was put into distilled water at a ratio of 1:10. Specifically, a fabric of 10 grams was soaked in 100 milliliters of distilled water. The fabric was incubated in the water for 7 days at room temperature, i.e. between 21 and 25° C.
Following said incubation time, the fabric was removed from the water and the exposed water was tested for the presence of the above five active ingredients using gas chromatography-mass spectrometry (GC-MS).

In the case of `CCCC1COC(Cn2cncn2)(c2ccc(Cl)cc2Cl)O1` (stereo not drawn) [Propiconazole, propiconazole], the “Leaching of active ingredients (in ppm)” value ([1]; exhaust 80° C., 60 min, dosage 1% o.w.f (test up to 5% o.w.f)) is reported as 3 ppm, the “Leaching of active ingredients (in ppm)” value ([1]; exhaust 80° C., 60 min, dosage 2% o.w.f) is reported as 26 ppm and the “Leaching of active ingredients (in ppm)” value ([1]; exhaust 80° C., 60 min, dosage 3% o.w.f) is reported as 40 ppm. For the same molecule, the “Leaching of active ingredients (in ppm)” value ([1]; exhaust 80° C., 60 min, dosage 4% o.w.f) was 47 ppm, the “Leaching of active ingredients (in ppm)” value ([1]; exhaust 80° C., 60 min, dosage 5% o.w.f) was 73 ppm and the “Leaching of active ingredients (in ppm)” value ([1]; exhaust 80 ° C., solution dosage 1% o.w.f, process time 10 min) was 38 ppm. For the same molecule, the “Leaching of active ingredients (in ppm)” value ([1]; exhaust 80 ° C., solution dosage 1% o.w.f, process time 20 min) was 26 ppm, the “Leaching of active ingredients (in ppm)” value ([1]; exhaust 80 ° C., solution dosage 1% o.w.f, process time 30 min) was 22 ppm and the “Leaching of active ingredients (in ppm)” value ([1]; exhaust 80 ° C., solution dosage 1% o.w.f, process time 40 min) was 15 ppm. The “Leaching of active ingredients (in ppm)” value ([1]; exhaust 80 ° C., solution dosage 1% o.w.f, process time 50 min) was 14 ppm, the “Leaching of active ingredients (in ppm)” value ([1]; exhaust 80 ° C., solution dosage 1% o.w.f, process time 55 min) was 7 ppm and the “Leaching of active ingredients (in ppm)” value ([1]; exhaust 80 ° C., solution dosage 1% o.w.f, process time 60 min) was 3 ppm. For the same molecule, the “Leaching of active ingredients (in ppm)” value ([1]; exhaust 80 ° C., solution dosage 1% o.w.f, process time 70 min) was 3 ppm, the “Leaching of active ingredients (in ppm)” value ([1]; exhaust 80 ° C., solution dosage 1% o.w.f, process time 80 min) was 4 ppm and the “Leaching of active ingredients (in ppm)” value ([1]; exhaust 80 ° C., solution dosage 1% o.w.f, process time 90 min) was 7 ppm. For the same molecule, the “limit on the quantity of the agent that can be adhered to the textile in a non-leaching or substantially non-leaching manner” value ([1]; from Experimental examples I.1 and I.4) was “about 0.25 % o.w.f”, the “Leaching of active ingredients” value ([1]; mixture 1 gm/lit each) was 9 ppm and the “Leaching of active ingredients” value ([1]; mixture 1 gm/lit each, after Washing) was 0.4 ppm. The “Leaching of active ingredients” value ([1]; mixture 5 gm/lit each) was 13 ppm, the “Leaching of active ingredients” value ([1]; mixture 5 gm/lit each, after Washing) was 0.7 ppm and the “Leaching of active ingredients” value ([1]; mixture 10 gm/lit each) was 24 ppm. The “Leaching of active ingredients” value ([1]; mixture 10 gm/lit each, after Washing) was 0.9 ppm, the “Leaching Test-Leaching of active ingredients” value (from here on “Leaching Test-Leaching”) ([1]; single agent 5 gm/lit, curing 120° C.) was 9 ppm and the “Leaching Test-Leaching” value ([1]; single agent 5 gm/lit, curing 140° C.) was 7 ppm. For the same molecule, the “Leaching Test-Leaching” value ([1]; single agent 5 gm/lit, curing 150° C.) was 5 ppm, the “Leaching Test-Leaching” value ([1]; single agent 5 gm/lit, curing 160° C.) was 4 ppm and the “Leaching Test-Leaching” value ([1]; single agent 5 gm/lit, curing 180° C.) was 1 ppm. The “Leaching Test-Leaching” value ([1]; single agent 10 gm/lit, curing 120° C.) was 15 ppm, the “Leaching Test-Leaching” value ([1]; single agent 10 gm/lit, curing 140° C.) was 14 ppm and the “Leaching Test-Leaching” value ([1]; single agent 10 gm/lit, curing 150° C.) was 13 ppm. For the same molecule, the “Leaching Test-Leaching” value ([1]; single agent 10 gm/lit, curing 160° C.) was 8 ppm, the “Leaching Test-Leaching” value ([1]; single agent 10 gm/lit, curing 180° C.) was 2 ppm and the “Leaching of active ingredient (in ppm)” value ([1]; solution dosage 0.10% o.w.f, exhaust temperature 40° C., process time 60 min) was 0 ppm. For the same molecule, the “Leaching of active ingredient (in ppm)” value ([1]; solution dosage 0.10% o.w.f, exhaust temperature 60° C., process time 60 min) was 0 ppm, the “Leaching of active ingredient (in ppm)” value ([1]; solution dosage 0.10% o.w.f, exhaust temperature 65° C., process time 60 min) was 0 ppm and the “Leaching of active ingredient (in ppm)” value ([1]; solution dosage 0.10% o.w.f, exhaust temperature 70° C., process time 60 min) was 0 ppm. For the same molecule, the “Leaching of active ingredient (in ppm)” value ([1]; solution dosage 0.10% o.w.f, exhaust temperature 75° C., process time 60 min) was 0 ppm, the “Leaching of active ingredient (in ppm)” value ([1]; solution dosage 0.10% o.w.f, exhaust temperature 80° C., process time 60 min) was 0 ppm and the “Leaching of active ingredient (in ppm)” value ([1]; solution dosage 0.10% o.w.f, exhaust temperature 85° C., process time 60 min) was 1 ppm. The “Leaching of active ingredient (in ppm)” value ([1]; solution dosage 0.10% o.w.f, exhaust temperature 90° C., process time 60 min) was 2 ppm, the “Leaching of active ingredient (in ppm)” value ([1]; solution dosage 0.10% o.w.f, exhaust temperature 95° C., process time 60 min) was 3 ppm and the “Leaching of active ingredient (in ppm)” value ([1]; solution dosage 0.20% o.w.f, exhaust temperature 40° C., process time 60 min) was 0 ppm. For the same molecule, the “Leaching of active ingredient (in ppm)” value ([1]; solution dosage 0.20% o.w.f, exhaust temperature 60° C., process time 60 min) was 0 ppm, the “Leaching of active ingredient (in ppm)” value ([1]; solution dosage 0.20% o.w.f, exhaust temperature 65° C., process time 60 min) was 0 ppm and the “Leaching of active ingredient (in ppm)” value ([1]; solution dosage 0.20% o.w.f, exhaust temperature 70° C., process time 60 min) was 0 ppm. For the same molecule, the “Leaching of active ingredient (in ppm)” value ([1]; solution dosage 0.20% o.w.f, exhaust temperature 75° C., process time 60 min) was 0 ppm, the “Leaching of active ingredient (in ppm)” value ([1]; solution dosage 0.20% o.w.f, exhaust temperature 80° C., process time 60 min) was 0 ppm and the “Leaching of active ingredient (in ppm)” value ([1]; solution dosage 0.20% o.w.f, exhaust temperature 85° C., process time 60 min) was 2 ppm. The “Leaching of active ingredient (in ppm)” value ([1]; solution dosage 0.20% o.w.f, exhaust temperature 90° C., process time 60 min) was 4 ppm, the “Leaching of active ingredient (in ppm)” value ([1]; solution dosage 0.20% o.w.f, exhaust temperature 95° C., process time 60 min) was 4 ppm and the “Leaching of active ingredient (in ppm)” value ([1]; solution dosage 0.50% o.w.f, exhaust temperature 40° C., process time 60 min) was 0 ppm. For the same molecule, the “Leaching of active ingredient (in ppm)” value ([1]; solution dosage 0.50% o.w.f, exhaust temperature 60° C., process time 60 min) was 1 ppm, the “Leaching of active ingredient (in ppm)” value ([1]; solution dosage 0.50% o.w.f, exhaust temperature 65° C., process time 60 min) was 1 ppm and the “Leaching of active ingredient (in ppm)” value ([1]; solution dosage 0.50% o.w.f, exhaust temperature 70° C., process time 60 min) was 1 ppm. The “Leaching of active ingredient (in ppm)” value ([1]; solution dosage 0.50% o.w.f, exhaust temperature 75° C., process time 60 min) was 1 ppm, the “Leaching of active ingredient (in ppm)” value ([1]; solution dosage 0.50% o.w.f, exhaust temperature 80° C., process time 60 min) was 1 ppm and the “Leaching of active ingredient (in ppm)” value ([1]; solution dosage 0.50% o.w.f, exhaust temperature 85° C., process time 60 min) was 3 ppm. The “Leaching of active ingredient (in ppm)” value ([1]; solution dosage 0.50% o.w.f, exhaust temperature 90° C., process time 60 min) was 5 ppm, the “Leaching of active ingredient (in ppm)” value ([1]; solution dosage 0.50% o.w.f, exhaust temperature 95° C., process time 60 min) was 6 ppm and the “Leaching of active ingredient (in ppm)” value ([1]; solution dosage 0.80% o.w.f, exhaust temperature 40° C., process time 60 min) was 0 ppm. For the same molecule, the “Leaching of active ingredient (in ppm)” value ([1]; solution dosage 0.80% o.w.f, exhaust temperature 60° C., process time 60 min) was 2 ppm, the “Leaching of active ingredient (in ppm)” value ([1]; solution dosage 0.80% o.w.f, exhaust temperature 65° C., process time 60 min) was 1 ppm and the “Leaching of active ingredient (in ppm)” value ([1]; solution dosage 0.80% o.w.f, exhaust temperature 70° C., process time 60 min) was 2 ppm. For the same molecule, the “Leaching of active ingredient (in ppm)” value ([1]; solution dosage 0.80% o.w.f, exhaust temperature 75° C., process time 60 min) was 2 ppm, the “Leaching of active ingredient (in ppm)” value ([1]; solution dosage 0.80% o.w.f, exhaust temperature 80° C., process time 60 min) was 1 ppm and the “Leaching of active ingredient (in ppm)” value ([1]; solution dosage 0.80% o.w.f, exhaust temperature 85° C., process time 60 min) was 4 ppm. The “Leaching of active ingredient (in ppm)” value ([1]; solution dosage 0.80% o.w.f, exhaust temperature 90° C., process time 60 min) was 6 ppm, the “Leaching of active ingredient (in ppm)” value ([1]; solution dosage 0.80% o.w.f, exhaust temperature 95° C., process time 60 min) was 7 ppm and the “Leaching of active ingredient (in ppm)” value ([1]; solution dosage 1.00% o.w.f, exhaust temperature 40° C., process time 60 min) was 0 ppm. The “Leaching of active ingredient (in ppm)” value ([1]; solution dosage 1.00% o.w.f, exhaust temperature 60° C., process time 60 min) was 8 ppm, the “Leaching of active ingredient (in ppm)” value ([1]; solution dosage 1.00% o.w.f, exhaust temperature 65° C., process time 60 min) was 7 ppm and the “Leaching of active ingredient (in ppm)” value ([1]; solution dosage 1.00% o.w.f, exhaust temperature 70° C., process time 60 min) was 4 ppm. For the same molecule, the “Leaching of active ingredient (in ppm)” value ([1]; solution dosage 1.00% o.w.f, exhaust temperature 75° C., process time 60 min) was 3 ppm, the “Leaching of active ingredient (in ppm)” value ([1]; solution dosage 1.00% o.w.f, exhaust temperature 80° C., process time 60 min) was 1.5 ppm and the “Leaching of active ingredient (in ppm)” value ([1]; solution dosage 1.00% o.w.f, exhaust temperature 85° C., process time 60 min) was 8 ppm. The “Leaching of active ingredient (in ppm)” value ([1]; solution dosage 1.00% o.w.f, exhaust temperature 90° C., process time 60 min) was 9 ppm, the “Leaching of active ingredient (in ppm)” value ([1]; solution dosage 1.00% o.w.f, exhaust temperature 95° C., process time 60 min) was 9 ppm and the “Extracted water Conc, ppm” value [2] was “BDL (BDL-below detection limit Detection limit: 1 parts per million (ppm))”.
